# Measurements taken from ChEMBL document CHEMBL5032527, “N-(4-acetamidophenyl)-5-acetylfuran-2-carboxamide as a novel orally available diuretic that targets urea transporters with improved PD and PK properties” (Eur J Med Chem, 2021).
# Active and inactive are the calls of the source. The rule behind the calls is not given here.
# How the values were obtained:
# Urea transporter 1 [1] = target: T1, Urea transporter 1 (Rattus norvegicus, UniProt P97689); test: Inhibition of rat UT-B expressed in MDCK cells; assay type: cell-based
# T1 sequence (P97689 whole entry): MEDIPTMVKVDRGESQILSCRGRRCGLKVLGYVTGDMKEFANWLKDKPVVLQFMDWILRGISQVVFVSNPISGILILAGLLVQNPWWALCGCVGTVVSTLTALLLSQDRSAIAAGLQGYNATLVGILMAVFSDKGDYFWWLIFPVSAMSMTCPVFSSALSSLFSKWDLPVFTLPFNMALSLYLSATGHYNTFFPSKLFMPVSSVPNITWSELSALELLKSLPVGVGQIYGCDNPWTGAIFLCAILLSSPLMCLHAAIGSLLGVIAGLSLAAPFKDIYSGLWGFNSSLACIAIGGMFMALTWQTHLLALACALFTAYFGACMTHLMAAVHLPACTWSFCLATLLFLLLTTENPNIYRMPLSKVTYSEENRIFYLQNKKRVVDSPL
# Urea transporter 1 [2] = target: T2, Urea transporter 1 (Mus musculus, UniProt Q8VHL0); test: Inhibition of mouse UT-B expressed in MDCK cells; assay type: cell-based
# T2 sequence (Q8VHL0 whole entry): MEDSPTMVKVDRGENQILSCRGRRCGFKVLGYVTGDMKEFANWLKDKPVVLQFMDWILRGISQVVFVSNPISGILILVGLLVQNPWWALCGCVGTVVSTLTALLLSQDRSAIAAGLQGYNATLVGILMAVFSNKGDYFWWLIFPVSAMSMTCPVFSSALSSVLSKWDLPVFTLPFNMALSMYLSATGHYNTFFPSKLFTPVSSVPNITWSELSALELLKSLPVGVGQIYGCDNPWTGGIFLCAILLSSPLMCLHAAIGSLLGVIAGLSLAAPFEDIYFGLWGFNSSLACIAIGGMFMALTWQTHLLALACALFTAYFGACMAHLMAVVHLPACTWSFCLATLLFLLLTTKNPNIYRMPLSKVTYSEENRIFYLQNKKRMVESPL
# [3] = AUC (0 to t) in Sprague-Dawley rat at 100 mg/kg, po by LC-MS/MS analysis; assay type: ADME, organism-based; design: dose 100 mg/kg; details: in vivo
# MDCK [4] = test: Inhibition of rat UT-A1 expressed in MDCK cells assessed as inhibition of urea transport at 8 uM; assay type: cell-based
# [5] = Cmax in Sprague-Dawley rat at 100 mg/kg, po by LC-MS/MS analysis; assay type: ADME, organism-based; design: route oral, dose 100 mg/kg; details: in vivo
# [6] = Metabolic stability in Sprague-Dawley rat plasma assessed as percentage of compound remaining after 240 mins by LC-MS/MS analysis; assay type: ADME, cell-free; details: read-out: Stability
# [7] = AUC (0 to infinity) in Sprague-Dawley rat at 100 mg/kg, po by LC-MS/MS analysis; assay type: ADME, organism-based; design: route oral, time infinity, dose 100 mg/kg; details: in vivo
# Rattus norvegicus [8] = test: Diuretic activity in Sprague-Dawley rat assessed as increase in urine volume at 100 mg/kg, IG after 4 hrs; assay type: functional, organism-based
# [9] = Half life in Sprague-Dawley rat at 100 mg/kg, po by LC-MS/MS analysis; assay type: ADME, organism-based; details: in vivo
# [10] = Bioavailability in Sprague-Dawley rat at 100 mg/kg, po by LC-MS/MS analysis; assay type: ADME, organism-based; details: in vivo
# [11] = MRT in Sprague-Dawley rat at 100 mg/kg, po by LC-MS/MS analysis; assay type: ADME, organism-based; details: in vivo
# [12] = Metabolic stability in Sprague-Dawley rat liver microsomes assessed as percentage of compound remaining after 240 mins by LC-MS/MS analysis; assay type: ADME, Microsome; details: read-out: Stability
# MDCK [13] = test: Cytotoxicity against MDCK cells assessed as reduction in cell viability at 80 uM measured by CCK-8 assay; assay type: cell-based, Canis lupus familiaris; details: dog
# Rattus norvegicus [14] = test: Diuretic activity in Sprague-Dawley rat assessed as increase in urine volume at 50 mg/kg, IG after 2 hrs; assay type: functional, organism-based
# Mus musculus [15] = test: Diuretic activity in mouse assessed as increase in urine output at 100 mg/kg, IG measured after 7 days; assay type: functional, organism-based; details: time 7.0 day
# Rattus norvegicus [16] = test: Diuretic activity in Sprague-Dawley rat assessed as increase in urine volume at 100 mg/kg, IG after 2 hrs; assay type: functional, organism-based
# Rattus norvegicus [17] = organism: Rattus norvegicus; test: Diuretic activity in IG treated Sprague-Dawley rat assessed as reduction in urine osmolality; assay type: functional
# in vivo = details: Sprague-Dawley, rat, po, 100 mg/kg
# Mus musculus [18] = organism: Mus musculus; test: Diuretic activity in mouse assessed as increase in urine volume; assay type: functional, organism-based
# MDCK [19] = test: Cytotoxicity against MDCK cells assessed as reduction in cell viability at 400 uM measured by CCK-8 assay; assay type: cell-based, Canis lupus familiaris; details: dog
# [20] = target: Voltage-gated inwardly rectifying potassium channel KCNH2 (Homo sapiens, UniProt Q12809); test: Inhibition of hERG; details: read-out: INH
# Chain of Voltage-gated inwardly rectifying potassium channel KCNH2 (Q12809 whole entry): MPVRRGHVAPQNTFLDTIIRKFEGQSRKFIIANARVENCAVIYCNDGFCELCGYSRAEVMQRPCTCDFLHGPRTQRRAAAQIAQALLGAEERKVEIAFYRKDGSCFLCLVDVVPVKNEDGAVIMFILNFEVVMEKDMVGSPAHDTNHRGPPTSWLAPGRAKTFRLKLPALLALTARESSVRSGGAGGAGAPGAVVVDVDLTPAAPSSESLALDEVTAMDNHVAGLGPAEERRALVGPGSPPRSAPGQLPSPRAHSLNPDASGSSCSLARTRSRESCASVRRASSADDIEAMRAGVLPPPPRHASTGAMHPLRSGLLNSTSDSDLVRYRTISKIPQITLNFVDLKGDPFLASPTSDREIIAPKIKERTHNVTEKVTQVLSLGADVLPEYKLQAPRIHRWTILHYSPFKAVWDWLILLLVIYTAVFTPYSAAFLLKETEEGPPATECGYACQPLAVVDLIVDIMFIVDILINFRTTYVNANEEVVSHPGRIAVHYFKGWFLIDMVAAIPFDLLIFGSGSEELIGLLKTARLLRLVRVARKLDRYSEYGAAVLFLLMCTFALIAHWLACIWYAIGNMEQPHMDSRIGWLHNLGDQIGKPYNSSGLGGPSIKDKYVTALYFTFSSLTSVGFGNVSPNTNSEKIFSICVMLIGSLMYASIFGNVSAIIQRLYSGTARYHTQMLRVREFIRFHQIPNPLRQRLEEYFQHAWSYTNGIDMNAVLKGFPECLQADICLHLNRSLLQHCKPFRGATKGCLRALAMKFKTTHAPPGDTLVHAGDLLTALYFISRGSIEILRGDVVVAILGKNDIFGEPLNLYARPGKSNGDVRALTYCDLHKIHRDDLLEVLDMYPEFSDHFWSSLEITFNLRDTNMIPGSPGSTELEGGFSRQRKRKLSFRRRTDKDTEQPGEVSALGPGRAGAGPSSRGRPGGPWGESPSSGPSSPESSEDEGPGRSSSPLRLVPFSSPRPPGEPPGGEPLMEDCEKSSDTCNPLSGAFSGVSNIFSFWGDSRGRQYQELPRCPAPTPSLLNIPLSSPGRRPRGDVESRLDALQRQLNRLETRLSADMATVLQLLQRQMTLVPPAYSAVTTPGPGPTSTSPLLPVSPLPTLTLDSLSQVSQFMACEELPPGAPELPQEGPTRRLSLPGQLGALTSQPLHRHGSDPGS
# Mus musculus [21] = organism: Mus musculus; test: Diuretic activity in mouse assessed as reduction in urine osmolality; assay type: functional, organism-based
# Rattus norvegicus [22] = test: Diuretic activity in Sprague-Dawley rat assessed as increase in urine volume at 100 mg/kg, IG; assay type: functional, organism-based; details: TDE = time-dependent effect
# [23] = target: T3, Urea transporter 1 (Rattus norvegicus) (UniProt P97689); test: Inhibition of rat UT-B expressed in MDCK cells assessed as inhibition of urea transport at 8 uM; assay type: cell-based
# T3 sequence (whole entry): T1 sequence (P97689 whole entry)
SMILES,IC50 (Urea transporter 1 [1]),IC50 (Urea transporter 1 [2]),further results
O=C(Nc1ccc(NS(=O)(=O)c2ccccc2C(F)(F)F)cc1)c1ccc([N+](=O)[O-])o1,870 nM,1490 nM,
O=C(Nc1ccc(NS(=O)(=O)c2cccc(Cl)c2)cc1)c1ccc([N+](=O)[O-])o1,750 nM,1010 nM,
O=C(Nc1cccc2[nH]c(=O)ccc12)c1ccc([N+](=O)[O-])o1,> 10000 nM,> 10000 nM,
O=C(Nc1ccc(NS(=O)(=O)c2cccc(Br)c2)cc1)c1ccc([N+](=O)[O-])o1,810 nM,1600 nM,
O=C1CCc2cc(NC(=O)c3ccc([N+](=O)[O-])o3)ccc2N1,1060 nM,2190 nM,
CC(=O)Nc1ccc(NC(=O)c2ccc([N+](=O)[O-])o2)cc1,1410 nM,,AUC(0-t) [3]: 78.1 ng·h/mL; inhibition (MDCK [4]): 102%; Cmax [5]: 74.3 ng/mL; remaining at 4 h [6]: 20%; AUC(0-inf) [7]: 82.5 ng·h/mL; Activity (Rattus norvegicus [8]): inactive; t1/2 [9]: 0.93 h; bioavailability [10]: 4.38%; MRT [11]: 1.51 h; remaining at 4 h [12]: 20%
O=C(Nc1ccc(NS(=O)(=O)c2cccc(F)c2)cc1)c1ccc([N+](=O)[O-])o1,660 nM,1320 nM,
O=C(Nc1ccc2ccc(=O)[nH]c2c1)c1ccc([N+](=O)[O-])o1,600 nM,1500 nM,
O=C(Nc1ccc(NS(=O)(=O)c2ccccc2Cl)cc1)c1ccc([N+](=O)[O-])o1,530 nM,1050 nM,
CCS(=O)(=O)Nc1ccc(NC(=O)c2ccc([N+](=O)[O-])o2)cc1,280 nM,840 nM,
CC(=O)Nc1ccc(NC(=O)c2ccc(F)o2)cc1,6470 nM,> 10000 nM,
CC(=O)Nc1ccc(NC(=O)c2ccc(C(=O)C(C)(C)C)o2)cc1,> 10000 nM,> 10000 nM,
O=C(Nc1ccc(NS(=O)(=O)c2ccc(C(F)(F)F)cc2)cc1)c1ccc([N+](=O)[O-])o1,2770 nM,3470 nM,
O=C(Nc1ccc(NS(=O)(=O)c2cccc(C(F)(F)F)c2)cc1)c1ccc([N+](=O)[O-])o1,1660 nM,2220 nM,
O=C(Nc1ccc(NS(=O)(=O)c2ccccc2)cc1)c1ccc([N+](=O)[O-])o1,110 nM,240 nM,
O=C(Nc1cccc2ccc(=O)[nH]c12)c1ccc([N+](=O)[O-])o1,6050 nM,> 10000 nM,
CC(=O)c1ccc(C(=O)Nc2ccc(NS(=O)(=O)c3ccccc3)cc2)o1,150 nM,160 nM,Activity (MDCK [13]): Toxic
O=C(Nc1ccc2[nH]c(=O)ccc2c1)c1ccc([N+](=O)[O-])o1,1230 nM,2340 nM,
CC(=O)Nc1ccc(NC(=O)c2ccc(C(F)F)o2)cc1,> 10000 nM,> 10000 nM,
O=C(Nc1ccc(NS(=O)(=O)c2ccc(Cl)cc2)cc1)c1ccc([N+](=O)[O-])o1,430 nM,690 nM,
CC(=O)Nc1ccc(NC(=O)c2ccc(C(=O)c3ccccc3)o2)cc1,> 10000 nM,9850 nM,
CC(=O)Nc1ccc(NC(=O)c2ccc(C(C)=O)o2)cc1,,,Activity (Rattus norvegicus [14]): Active; AUC(0-t) [3]: 6840 ng·h/mL; Activity (Mus musculus [15]): Active; inhibition (MDCK [4]): 84.4%; Activity (Rattus norvegicus [16]): Active; fold change (FC) (Rattus norvegicus [17]): 10; Tmax (in vivo): 0.21 h; Cmax [5]: 1240 ng/mL; remaining at 4 h [6]: 20%; Activity (Mus musculus [18]): Active; Activity (MDCK [19]): Toxic; IC50 [20]: > 100000 nM; Activity (Mus musculus [21]): Active; Activity (Rattus norvegicus [22]): Tde; bioavailability [10]: 15.8%; MRT [11]: 5.45 h; inhibition [23]: 89.6%; remaining at 4 h [12]: 20%
O=C(Nc1ccc(NS(=O)(=O)c2ccccc2F)cc1)c1ccc([N+](=O)[O-])o1,1040 nM,1680 nM,
O=C(Nc1ccc(NS(=O)(=O)c2ccc(F)cc2)cc1)c1ccc([N+](=O)[O-])o1,640 nM,1310 nM,
O=C1Cc2cc(NC(=O)c3ccc([N+](=O)[O-])o3)ccc2N1,3170 nM,4990 nM,
